Data published in patent US12673946B2, “Pyrimidin-4(3H)-one derivatives as TRPV4 antagonists” (RaQualia Pharma Inc., priority 2020, dated 2026).
Blank lines part the entries; values can stand above or below the molecule they belong to.

Biological target: T1, human TRPV4 (Homo sapiens, UniProt Q9HBA0)
T1 construct: host or cells: tetracycline-inducible Flp-In T-REx 293 cells
Experiment: Hypotonicity-induced Ca2+ influx (Fluo-4, FDSS)
Assay type: cell-based
Method in brief: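 Flp-In T-REx 293 cells with tetracycline-induced human TRPV4, loaded with Fluo-4 for 60 min at 25 °C. Compound added 5 min before hypotonic mannitol/CaCl2 solution. Ca2+ signal recorded for 4.5 min on FDSS.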

[1] = Flp-In T-REx 293 cells expressing human TRPV4, examples listed under heading 'Human IC50<50 nM'
[2] = Flp-In T-REx 293 cells stably expressing human TRPV4, compounds listed by potency bin (<10 nM Tables 96-1/96-2, <3 nM Table 97)

T1 sequence (Q9HBA0 whole entry): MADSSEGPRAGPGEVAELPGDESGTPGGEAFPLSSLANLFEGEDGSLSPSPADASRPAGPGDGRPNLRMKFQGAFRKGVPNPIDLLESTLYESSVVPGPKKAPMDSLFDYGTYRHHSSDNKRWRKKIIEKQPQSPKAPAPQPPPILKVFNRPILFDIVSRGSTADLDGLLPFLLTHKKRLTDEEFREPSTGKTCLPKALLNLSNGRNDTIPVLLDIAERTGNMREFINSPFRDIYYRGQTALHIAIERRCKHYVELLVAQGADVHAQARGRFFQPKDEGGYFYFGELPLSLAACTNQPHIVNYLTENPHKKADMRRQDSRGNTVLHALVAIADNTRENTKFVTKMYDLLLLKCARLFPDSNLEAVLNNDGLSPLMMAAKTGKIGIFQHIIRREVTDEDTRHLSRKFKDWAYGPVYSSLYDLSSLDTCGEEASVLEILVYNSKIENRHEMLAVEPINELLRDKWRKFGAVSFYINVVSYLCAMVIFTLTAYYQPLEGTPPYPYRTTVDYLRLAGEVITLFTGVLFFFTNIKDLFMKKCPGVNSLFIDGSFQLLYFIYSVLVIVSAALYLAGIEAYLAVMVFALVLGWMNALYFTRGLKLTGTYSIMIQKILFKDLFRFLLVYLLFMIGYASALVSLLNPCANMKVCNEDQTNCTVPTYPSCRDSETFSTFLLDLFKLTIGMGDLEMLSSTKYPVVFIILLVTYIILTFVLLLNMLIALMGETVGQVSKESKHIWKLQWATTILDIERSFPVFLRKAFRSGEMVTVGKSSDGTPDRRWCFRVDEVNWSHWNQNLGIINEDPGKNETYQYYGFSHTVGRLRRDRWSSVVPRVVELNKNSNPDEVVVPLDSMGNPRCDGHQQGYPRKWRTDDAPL

SMILES: O=C(Cc1cccc(-c2cccc(Cl)c2)c1)N1CCCc2nc(C3(c4cccc(Cl)c4)CC3)[nH]c(=O)c2C1 [17-100]
IC50 [1]: < 50 nM
IC50 [2]: < 3 nM

SMILES: N#Cc1cccc(-c2cccc([C@@H](O)C(=O)N3CCCc4nc(C5(c6cccc(Cl)c6)CC5)[nH]c(=O)c4C3)c2)c1 [50-25]
IC50 [1]: < 50 nM
IC50 [2]: < 3 nM

SMILES: O=C([C@H](O)c1cccc(-c2cc(C(F)(F)F)cc(C(F)(F)F)c2)c1)N1CCCc2nc(C3(c4ccccc4)CC3)[nH]c(=O)c2C1 [49-32]
IC50 [1]: < 50 nM
IC50 [2]: < 10 nM

SMILES: O=C(Cc1cccc(-c2ccc(Cl)cc2)c1)N1CCCc2nc(C3(c4ccccc4)CC3)[nH]c(=O)c2C1 [17-135]
IC50 [1]: < 50 nM
IC50 [2]: < 10 nM

SMILES: O=C([C@H](O)c1cccc(C(F)(F)F)c1)N1CCCc2nc(C3(c4cccc(OC(F)(F)F)c4)CC3)[nH]c(=O)c2C1 [17-6]
IC50 [1]: < 50 nM
IC50 [2]: < 3 nM

SMILES: CNc1cc(-c2cccc(C3(c4nc5c(c(=O)[nH]4)CN(C(=O)[C@H](O)c4cccc(C(F)(F)F)c4)CCC5)CC3)c2)ccn1 [42-32]
IC50 [1]: < 50 nM
IC50 [2]: < 10 nM

SMILES: CC(C)c1cncc(C2(c3nc4c(c(=O)[nH]3)CN(C(=O)[C@H](O)c3cccc(Cl)c3)CC4)CC2)c1 [25-3]
IC50 [1]: < 50 nM
IC50 [2]: < 10 nM

SMILES: O=C(Cc1ccc(COc2ccccc2)cc1)N1CC=C(c2cccc(C3(c4nc5c(c(=O)[nH]4)CN(C(=O)[C@H](O)c4cccc(C(F)(F)F)c4)CCC5)CC3)c2)CC1 [42-79]
IC50 [1]: < 50 nM
IC50 [2]: < 10 nM

SMILES: CC(C)(C)CC(=O)N1CCC(c2cccc(C3(c4nc5c(c(=O)[nH]4)CN(C(=O)[C@H](O)c4cccc(C(F)(F)F)c4)CCC5)CC3)c2)CC1 [31-12]
IC50 [1]: < 50 nM
IC50 [2]: < 10 nM

SMILES: CC(C)(C)c1ccc(-c2cccc(C3(c4nc5c(c(=O)[nH]4)CN(C(=O)[C@H](O)c4cccc(Cl)c4)CCC5)CC3)c2)cc1 [40-5]
IC50 [1]: < 50 nM
IC50 [2]: < 10 nM

SMILES: O=C(COc1cccc(-c2ccccc2)c1)N1CCCc2nc(C3(c4cccc(Cl)c4)CC3)[nH]c(=O)c2C1 [17-105]
IC50 [1]: < 50 nM

SMILES: O=C(C(O)c1cccc(C(F)(F)F)c1F)N1CCc2nc(C3(c4cccc(F)c4)CC3)[nH]c(=O)c2C1 (centres unmarked) [14-29]
IC50 [1]: < 50 nM

SMILES: O=C(C(O)c1cccc(-c2cccc(C(F)(F)F)c2)c1)N1CCCc2c(nc(C3(c4ccccc4)CC3)[nH]c2=O)C1 (centres unmarked) [17-74]
IC50 [1]: < 50 nM
IC50 [2]: < 10 nM

SMILES: O=C([C@H](O)c1cccc(F)c1F)N1CCCc2nc(C3(c4cccs4)CC3)[nH]c(=O)c2C1 [18-11]
IC50 [1]: < 50 nM

SMILES: O=C([C@H](O)c1cccc(C(F)(F)F)c1)N1CCCc2nc(C3(c4cccc(C5=CCN(C(=O)C6(c7cccc(C(F)(F)F)c7)CC6)CC5)c4)CC3)[nH]c(=O)c2C1 [42-83]
IC50 [1]: < 50 nM
IC50 [2]: < 3 nM

SMILES: CC(C)(C)c1cccc(-c2cccc([C@@H](O)C(=O)N3CCCc4nc(C5(c6cccc(-c7csc8ccccc78)c6)CC5)[nH]c(=O)c4C3)c2)c1 [52-12]
IC50 [1]: < 50 nM
IC50 [2]: < 10 nM

SMILES: Cn1ccc(-c2cccc(C3(c4nc5c(c(=O)[nH]4)CN(C(=O)[C@H](O)c4cccc(C(F)(F)F)c4)CCC5)CC3)c2)n1 [42-34]
IC50 [1]: < 50 nM

SMILES: N#Cc1ccc(-c2cccc(C3(c4nc5c(c(=O)[nH]4)CN(C(=O)[C@H](O)c4cccc(C(F)(F)F)c4)CCC5)CC3)c2)cc1F [42-67]
IC50 [1]: < 50 nM
IC50 [2]: < 10 nM

SMILES: O=C([C@H](O)c1cccc(-c2cccc(C(F)(F)F)c2)c1)N1CCc2nc(C3(c4cccc(Cl)c4)CC3)[nH]c(=O)c2C1 [45-4]
IC50 [1]: < 50 nM
IC50 [2]: < 10 nM

SMILES: O=C(C(O)c1cccc(Oc2cccc(C(F)(F)F)c2)c1)N1CCCc2nc(C3(c4ccccc4)CC3)[nH]c(=O)c2C1 (centres unmarked) [17-75]
IC50 [1]: < 50 nM
IC50 [2]: < 3 nM

SMILES: CC(C)c1cncc(C2(c3nc4c(c(=O)[nH]3)CN(C(=O)[C@H](O)c3cccc(-c5ccc(C(F)(F)F)nc5)c3)CC4)CC2)c1 [47-5]
IC50 [1]: < 50 nM
IC50 [2]: < 10 nM

SMILES: O=C([C@H](O)c1cccc(Cl)c1)N1CCCc2nc(C3(c4cncc(-c5cnsc5)c4)CC3)[nH]c(=O)c2C1 [19-10]
IC50 [1]: < 50 nM

SMILES: O=C([C@H](O)c1cccc(-c2ccc(OCc3ccccc3)nc2)c1)N1CCc2nc(C3(c4ccccc4)CC3)[nH]c(=O)c2C1 [44-83]
IC50 [1]: < 50 nM
IC50 [2]: < 10 nM

SMILES: O=C([C@H](O)c1cccc(-c2cccc(OC(F)(F)F)c2)c1)N1CCCc2nc(C3(c4cc(-c5ccccc5)cs4)CC3)[nH]c(=O)c2C1 [18-26]
IC50 [1]: < 50 nM
IC50 [2]: < 10 nM

SMILES: N#Cc1cc(Cl)cc(-c2cccc(CC(=O)N3CCCc4nc(C5(c6cccc(Cl)c6)CC5)[nH]c(=O)c4C3)c2)c1 [17-119]
IC50 [1]: < 50 nM
IC50 [2]: < 3 nM

SMILES: O=C([C@H](O)c1cccc(-c2cc(Cl)cc(C(F)(F)F)c2)c1)N1CCCc2nc(C3(c4ccccc4)CC3)[nH]c(=O)c2C1 [49-36]
IC50 [1]: < 50 nM
IC50 [2]: < 3 nM

SMILES: O=C([C@H](O)c1cccc(Cl)c1)N1CCCc2nc(C3(c4cccc(C5=CCCCC5)c4)CC3)[nH]c(=O)c2C1 [40-20]
IC50 [1]: < 50 nM
IC50 [2]: < 3 nM

SMILES: O=C(C(O)c1cccc(-c2ccnc(C(F)(F)F)c2)n1)N1CCc2nc(C3(c4ccccc4)CC3)[nH]c(=O)c2C1 (centres unmarked) [48-3]
IC50 [1]: < 50 nM
IC50 [2]: < 10 nM

SMILES: O=C([C@H](O)c1cccc(Cl)c1)N1CCCc2nc(C3(c4cccc(OCc5ccccc5)c4)CC3)[nH]c(=O)c2C1 [17-91]
IC50 [1]: < 50 nM
IC50 [2]: < 3 nM

SMILES: CC(C)c1csc(C2(c3nc4c(c(=O)[nH]3)CN(C(=O)[C@H](O)c3cccc(-c5cccc(C(C)(C)C)c5)c3)CCC4)CC2)c1 [54-1]
IC50 [1]: < 50 nM
IC50 [2]: < 3 nM

SMILES: O=C([C@H](O)c1cccc(C(F)(F)F)c1)N1CCc2nc(C3(c4cncc(C5CCCC5)c4)CC3)[nH]c(=O)c2C1 [28-1]
IC50 [1]: < 50 nM
IC50 [2]: < 3 nM

SMILES: O=C(N1CCc2nc(C3(c4cncc(-c5ccccc5)c4)CC3)[nH]c(=O)c2C1)C(F)(F)c1cccc(Cl)c1 [22-5]
IC50 [1]: < 50 nM
IC50 [2]: < 10 nM

SMILES: O=C([C@H](O)c1cccc(C(F)(F)F)c1)N1CCCc2nc(C3(c4cc(CCC56CC7CC(CC(C7)C5)C6)cs4)CC3)[nH]c(=O)c2C1 [30-5]
IC50 [1]: < 50 nM
IC50 [2]: < 10 nM

SMILES: O=C([C@H](O)c1cccc(F)c1F)N1CCCc2nc(C3(c4cccc(F)c4)CC3)[nH]c(=O)c2C1 [17-60]
IC50 [1]: < 50 nM

SMILES: O=C([C@H](O)c1cccc(-c2cccc(C(F)(F)F)c2)c1)N1CCc2nc(C3(c4ccccc4)CC3)[nH]c(=O)c2C1 [44-71]
IC50 [1]: < 50 nM
IC50 [2]: < 3 nM

SMILES: CC(C)c1csc(C2(c3nc4c(c(=O)[nH]3)CN(C(=O)[C@H](O)c3cccc(-c5ccnc(C(F)(F)F)c5)c3)CCC4)CC2)c1 [54-6]
IC50 [1]: < 50 nM
IC50 [2]: < 3 nM

SMILES: O=C([C@H](O)c1cccc(C(F)(F)F)c1)N1CCc2nc(C3(c4cc(C5CCCC5)cs4)CC3)[nH]c(=O)c2C1 [15-1]
IC50 [1]: < 50 nM
IC50 [2]: < 3 nM

Continued, values first:

IC50 [1]: < 50 nM
IC50 [2]: < 10 nM
SMILES: CC(C)c1csc(C2(c3nc4c(c(=O)[nH]3)CN(C(=O)C(F)(F)c3cccc(C(F)(F)F)c3)CC4)CC2)c1 [21-5]

IC50 [1]: < 50 nM
IC50 [2]: < 10 nM
SMILES: O=C([C@H](O)c1cccc(C(F)(F)F)c1)N1CCCc2nc(C3(c4cccc(C5CCCCC5)c4)CC3)[nH]c(=O)c2C1 [17-25]

IC50 [1]: < 50 nM
IC50 [2]: < 10 nM
SMILES: O=C([C@H](O)c1cccc(-c2cc(Cl)cc(OC(F)(F)F)c2)c1)N1CCc2nc(C3(c4cccc(Cl)c4)CC3)[nH]c(=O)c2C1 [45-11]

IC50 [1]: < 50 nM
IC50 [2]: < 3 nM
SMILES: O=C([C@H](O)c1cccc(-c2cc3ccccc3s2)c1)N1CCCc2nc(C3(c4ccccc4)CC3)[nH]c(=O)c2C1 [49-28]

IC50 [1]: < 50 nM
SMILES: O=C(C(O)c1cccc(C(F)(F)F)c1)N1CCc2nc(C3(c4ccc(F)cc4)CC3)[nH]c(=O)c2C1 (centres unmarked) [3-67]

IC50 [1]: < 50 nM
IC50 [2]: < 3 nM
SMILES: Cn1ncc2c(-c3cccc(C4(c5nc6c(c(=O)[nH]5)CN(C(=O)[C@H](O)c5cccc(Cl)c5)CCC6)CC4)c3)cccc21 [40-10]

IC50 [1]: < 50 nM
IC50 [2]: < 10 nM
SMILES: CC(C)c1cccc(C2(c3nc4c(c(=O)[nH]3)CN(C(=O)[C@H](O)c3cccc(Cl)c3)CC4)CC2)c1 [14-13]

IC50 [1]: < 50 nM
IC50 [2]: < 3 nM
SMILES: CC(C)(C)c1cccc(-c2cccc(C(O)C(=O)N3CCCc4nc(C5(c6cncc(-c7ccccc7)c6)CC5)[nH]c(=O)c4C3)c2)c1 (centres unmarked) [56-3]

IC50 [1]: < 50 nM
IC50 [2]: < 10 nM
SMILES: O=C([C@H](O)c1cccc(C(F)(F)F)c1)N1CCCc2nc(C3(c4cccc(-c5ccc(CN6CCc7c(Cl)cccc7C6)cc5)c4)CC3)[nH]c(=O)c2C1 [42-96]

IC50 [1]: < 50 nM
IC50 [2]: < 10 nM
SMILES: O=C(C(O)c1cccc(-c2ccc(Cl)cc2)c1)N1CCc2nc(C3(c4cccc(Cl)c4)CC3)[nH]c(=O)c2C1 (centres unmarked) [14-9]

IC50 [1]: < 50 nM
SMILES: O=C(C(O)c1cccc(S(F)(F)(F)(F)F)c1)N1CCc2nc(C3(c4cccs4)CC3)[nH]c(=O)c2C1 (centres unmarked) [15-13]

IC50 [1]: < 50 nM
IC50 [2]: < 10 nM
SMILES: O=C([C@H](O)c1cccc(C(F)(F)F)c1)N1CCCc2nc(C3(c4cccs4)CC3)[nH]c(=O)c2C1 [18-9]

IC50 [1]: < 50 nM
IC50 [2]: < 10 nM
SMILES: O=C(C(O)c1cncc(-c2cccc(C(F)(F)F)c2)c1)N1CCc2nc(C3(c4ccccc4)CC3)[nH]c(=O)c2C1 (centres unmarked) [48-4]

IC50 [1]: < 50 nM
IC50 [2]: < 10 nM
SMILES: O=C(C(O)c1cccc(-c2cccc(Cl)c2)c1)N1CCCc2nc(C3(c4ccccc4)CC3)[nH]c(=O)c2C1 (centres unmarked) [49-6]

IC50 [1]: < 50 nM
SMILES: O=C(C(O)c1cncc(-c2ccnc(C(F)(F)F)c2)c1)N1CCc2nc(C3(c4ccccc4)CC3)[nH]c(=O)c2C1 (centres unmarked) [48-7]

IC50 [1]: < 50 nM
IC50 [2]: < 10 nM
SMILES: CC(C)c1cncc(C2(c3nc4c(c(=O)[nH]3)CN(C(=O)[C@H](O)c3cccc(C(F)(F)F)c3)CCC4)CC2)c1 [19-2]

IC50 [1]: < 50 nM
IC50 [2]: < 3 nM
SMILES: O=C(N1CCCc2nc(C3(c4cccc(Cl)c4)CC3)[nH]c(=O)c2C1)C(F)(F)c1cccc(Cl)c1 [20-2]

IC50 [1]: < 50 nM
IC50 [2]: < 10 nM
SMILES: CC(C)(C)c1cccc(-c2cccc(C(F)(F)C(=O)N3CCCc4nc(C5(c6ccccc6)CC5)[nH]c(=O)c4C3)c2)c1 [58-2]
